Here are results for two compounds from patent publication US20250100962A1 (CITY OF HOPE, priority 2023, published 2025).

Data set [1] concerns Wnt signaling activity. Description: TOPFlash luciferase reporter assay (Example 3). The data set is classed as cell-based. As to conditions: for TOPFlash reporter activity, Wnt-stimulated: Wnt3a media. On the procedure:
(§1) TOPFlash luciferase reporter assay. M50 Super 8×TOPFlash luciferase reporter containing Wnt-responsive TCF bindings sites was a gift from Randall Moon (Veeman, Slusarski, Kaykas et al., 2003) obtained from Addgene (Addgene plasmid #12456). Cells were seeded and grown overnight, and cell transfection was performed at 90% confluency. 24 hours following transfection, cells were treated using 10% Wnt3a conditioned media obtained from L Wnt-3A cell line (ATCC CRL-2647) to induce luciferase activity. Luciferase activity was assayed using Dual-Luciferase Reporter Assay Kit (Promega) in 96-well black plates. TOPFlash luciferase reporter luminescence was measured on microplate reader (TECAN infinite M200pro) and normalized to control FOPFlash activity, as previously described (Guo et al., 2012). The mean and standard deviation values were calculated for each well and graphed.
Background: In a reporter assay the amount or activity of a reporter protein is the signal.

Data set [2] relates to Wnt signaling activity. Put plainly: TOPFlash luciferase reporter (Wnt activity) in U2OS cells. Particulars: for TOPFlash reporter activity, Wnt3a-containing media: Wnt3a stimulated; for TOPFlash Wnt activity, basal condition: without Wnt stimulation. The data set is classed as cell-based. On the procedure: FIGS. 20A-20F. Effect of CM002 on activating circadian clock function. […] We tested the effect of CM002 from 0.2-5 μM on clock modulation in […] cells containing Per2::dLuc reporter using Lumicycle by monitoring chemiluminescence recordings for 6 days. The results were presented using the average original luminescence (FIG. 20A) or baseline-adjusted presentation (FIG. 20B). […] Based on the known clock effect on stimulating Wnt signaling activity, we used a TCF4 promoter-driven TOPFlash luciferase reporter to determine the effect of CM002 on Wnt pathway and compared this activity with CHX.
as §1

Data set [3] deals with C2C12 myoblasts. Put plainly: Wound healing assay of C2C12 myoblasts. The data set is classed as cell-based, mouse. As to conditions: 8 and 24 hours; 0.2 to 1 μM; vs DMSO. On the procedure: Cells were seeded at 12×10^5 concentration on 6 well plates until 90% coverage and treated with compounds as indicated and controls while maintained 10% FBS 1% PSG DMEM. Scratch wounds were made with disposable cells scrapers and pictures were taken at hours 0, 4, 8, 24 and 48 following scratch. The results were measured as percentage coverage over original wound area based on image quantification. Area of wound closure was measured using Image J software.

Data set [4] relates to C57/BL6 wild-type mice. Put plainly: Cardiotoxin-induced acute muscle injury, intramuscular injection into TA muscle. Particulars: for eMyHC staining (new myofiber formation): after cardiotoxin injury, local intramuscular injection. In kind it is in vivo, mouse. From the text: FIGS. 42A-42B. CHX and CM002 promote nascent myofiber formation upon acute muscle injury. To determine whether the effect of CHX and CM002 on promoting myogenesis leads to improved muscle regeneration in vivo, we tested local intramuscular injection into TA muscle following acute injury by cardiotoxin in normal C57/BL6 wild-type mice. […] Collectively, these findings indicate that these clock-activating molecules are capable of inducing myogenic response via local administration leading to sustained new myofiber formation following acute muscle injury.

In data set [5] the test system is C2C12 myoblasts. Put plainly: EdU proliferation assay in C2C12 myoblasts. The data set is classed as cell-based, mouse. On the procedure: Cells were seeded at 0.2×10^5 concentration and treated with desired compounds and controls overnight. The seeding density was decided after trying several densities and choosing the one that after 24 h lead to visible, not clumping cells. 10 μM 5-ethynyl-2′-deoxyuridine (EdU) incorporation was performed during 4 h according to the kit protocol and detected by Click-iT Imaging Kit with Alexa 488 Fluorophore (Invitrogen). 1 μg/ml 4′,6′-diamidine-2′-phenylindole dihydrochloride (DAPI) was used to label for nuclei. Total number of EdU+ cells was counted from 8 representative fields at 20× and the rate of proliferation was calculated as percentage of EdU+/DAPI.

Data set [6] has as its system 3T3-L1 preadipocytes. Description: Clock and Wnt gene expression in 3T3-L1 cells. As to conditions: RT-qPCR. The data set is classed as cell-based. On the procedure: RNA extraction and RT-qPCR analysis. PureLink RNA Mini Kit (Invitrogen) were used to isolate total RNA from cells. cDNA was generated using Revert Aid RT kit (ThermoFisher) and quantitative PCR was performed using SYBR Green Master Mix (Thermno Fisher) in triplicates on ViiA 7 Real-Time PCR System (Applied Biosystems). Relative expression levels were determined using the comparative Ct method with normalization to 361B4 as internal control.

Data set [7] has as its system mdx mouse primary myoblasts. Put plainly: MTT cell viability of mdx mouse primary myoblasts. The data set is classed as cell-based. On the procedure: Cells were seeded at 5×10^4 concentration in 100 μl culture medium into 96 wells flat bottom microplates and treated after 24 h with desired compounds and controls. After desired incubation periods, cells were treated with MTT labeling reagent 1× (MTT (3-[4,5-dimethylthiazol-2-yl]-2,5-diphenyltetrazolium bromide labeling reagent, 5 mg/ml in PBS, Roche Cell Proliferation Kit I (MTT)) and Solubilization buffer 1× (10% SDS in 0.01 M HCl and left overnight. Next morning absorbance was measured at 570 nm and 700 nm on microplate (ELISA) reader (TECAN infinite M200pro). The mean and standard deviation values were calculated for each well and graphed.
FIGS. 41A-41D. Effect of Chlorhexidine (CHX) and CM002 treatment on viability of mouse and human myoblasts. To determine potential toxic effects of CHX and CM002, we treated mouse C2C12 myoblast cell line with increasing concentrations from 0.2-5 μM for 48 hours and determined cell viability using the MTT assay (FIG. 41A). […] Considering the inflammatory milieus in dystrophic muscles, we further tested the tolerance of myoblasts to these molecules in the presence of inflammatory stimuli, a cytokine cocktail (CC) consisted of 10 ng/mL IL-1β, 100 ng/mL IFN-γ and 25 ng/mL of TNF-α (FIG. 41B). […] Lastly, human primary myoblasts derived from Duchene Muscular Dystrophy (DMD) patients were used to determine their tolerance to these compounds.

The test system of data set [8] is mdx mice. Description: Maximal lethal dose by daily intraperitoneal injection in mdx mice. In kind it is in vivo. As for the experimental part:
FIGS. 48A-48C. Systemic delivery of CM002 by intraperitoneal injection improves muscle strength in dystrophic mdx mice. Based on the PK analysis, we determined the maximal lethal dose in mdx mice via daily intraperitoneal injections using escalating doses. Starting doses were tested at 10, 20 and 30 mg/Kg/day, for 3 consecutive days in male or female mdx mice (FIG. 48A).

Regarding `[H]/N=C(\N/C(=N/[H])NCCCCCCNC(=N)NC(=N)Nc1ccc(Cl)cc1)Nc1ccc(Cl)cc1` [CHX, chlorhexidine], in data set [1], the “TOPFlash reporter activity, basal condition” value is “could induce Wnt signaling activity” and the “TOPFlash reporter activity, Wnt-stimulated” value is “could induce Wnt signaling activity”. Moreover, in data set [2], the “TOPFlash reporter activity, Wnt3a-containing media” value was “significantly induced” and the “TOPFlash Wnt activity, basal condition” value is on record as “augmented Wnt activity at basal condition”. Also, the “wound area closure (migration)” value in data set [3] is recorded as “significantly increased”. In addition, the Pax7 protein entry in data set [4] (CTX-injected TA muscle) was “robustly increased”. In addition, the “eMyHC staining (new myofiber formation)” value in data set [4] is on record as “substantial amount of eMyHC staining indicative of sustained nascent myofiber regeneration”. Besides, in data set [5] (both concentrations tested, 24 hours), the “increase of proliferation (EdU incorporation)” value is ~40%. In addition, the “core clock gene expression” value in data set [6] is “Largely similar effects on inducing core clock genes”. The “concentration causing cell death” value in data set [7] (with cytokine cocktail) was ≥ 500 nM.

As to `CCCCCC/C=N/C(=N)NC(=N)Nc1ccc(Cl)cc1` [CM002], in data set [1], the “TOPFlash reporter activity, basal condition” value is on record as “sufficient to stimulate TOPFlash reporter activity to a similar degree as CHX”; the “TOPFlash reporter activity, Wnt-stimulated” value is “at lower concentrations at 0.1 and 0.2 μM were sufficient to induce TOPFlash reporter activity comparable to that of CHX at 0.5 μM”. Further, in data set [2], the “TOPFlash reporter activity, Wnt3a-containing media” value was 0.1 μM of CM002 comparable to that of CHX induction at 1 μM and the “TOPFlash Wnt activity, basal condition” value is given as “augmented Wnt activity at basal condition”. In data set [4] (CTX-injected TA muscle), the “MyoD, Myf5 and Myogenin levels” value was “elevated levels of MyoD, Myf5 and Myogenein”; the Pax7 protein result is reported as “robustly increased”. Moreover, the “eMyHC staining (new myofiber formation)” value in data set [4] is listed as “substantial amount of eMyHC staining indicative of sustained nascent myofiber regeneration”. The “proliferation (EdU incorporation)” value in data set [5] (4 hours, 0.5 and 1 μM) is “significantly increased proliferation of C2C12 myoblasts”. Besides, the “concentration up to which cells remain viable” value in data set [7] (mdx, mouse) was “up to 1 μM”. The “cell death at 2.5 μM” value in data set [7] (mdx, mouse, 2.5 μM) is given as “significantly less cell death at 2.5 μM”. In data set [8] (IP injection), the “lethality at 20 mg/kg” value is given as “young adult mice at 14 weeks of age were succumbed to death, while older mice over 6 months of age survived” and the “lethality at 30 mg/kg” value is reported as “most mice injected at 30 mg/kg deceased”. In data set [8] (intraperitoneal, 3 consecutive days), the lethal dose result is “over 20 mg/kg/day”. In data set [8] (male mice of 10-14 weeks, IP), the “tolerability at 10 mg/kg” value is on record as “tolerated 10 mg/kg well without any lethality”.
